From PMC8041284, “Tunable Methacrylamides for Covalent Ligand Directed Release Chemistry” (Journal of the American Chemical Society, 2021)
Like-named read-outs stand apart in the source and are kept apart here.

Target: BTK (Homo sapiens, UniProt Q06187)
Assay: biochemical
[1] = read-out: BTK inhibition (%), 0.75 uM BTK, […] probe 3l, 15 min preincubation

BTK, sequence (Q06187 402-655 limits assumed): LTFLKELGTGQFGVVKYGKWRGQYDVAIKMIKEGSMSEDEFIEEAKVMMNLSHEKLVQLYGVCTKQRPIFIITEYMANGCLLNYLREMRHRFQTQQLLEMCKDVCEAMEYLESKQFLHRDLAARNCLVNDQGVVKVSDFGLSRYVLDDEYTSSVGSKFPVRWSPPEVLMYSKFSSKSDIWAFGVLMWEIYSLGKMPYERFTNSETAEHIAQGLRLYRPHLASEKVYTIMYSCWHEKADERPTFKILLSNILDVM

| inhibition at 10 µM [1] [%] | inhibition at 10 µM (read-out: BTK inhibition (%)) [%] | SMILES |
| --- | --- | --- |
| 12.4 | – | COc1ccc2c(Oc3ccc(NC(=O)c4c(C)n(CC(C)(C)O)n(-c5ccccc5)c4=O)nc3)ccnc2c1 [PCM-0095484] |
| 0 | – | COc1cccc(OC)c1C(=O)OCc1cc(O)ccc1O[C@@H]1O[C@H](CO)[C@@H](O)[C@H](O)[C@H]1O [PCM-0216173] |
| -6.2 | – | CCOC(=O)[C@H](CCc1ccccc1)N[C@@H](C)C(=O)N1Cc2cc(OC)c(OC)cc2C[C@H]1C(=O)O [PCM-0095243] |
| -1.5 | – | CCCCS(=O)(=O)N[C@@H](Cc1ccc(OCCCCC2CCNCC2)cc1)C(=O)O [PCM-0215839] |
| -0.8 | – | CC(=O)c1cc2c(o1)C(=O)c1ccccc1C2=O [PCM-0215544] |
| 74.9 | – | COC(=O)N[C@H](C(=O)N1CC2(CC2)C[C@H]1c1ncc(-c2ccc3c(c2)C(F)(F)c2cc(-c4ccc5nc([C@@H]6[C@H]7CC[C@H](C7)N6C(=O)[C@@H](NC(=O)OC)C(C)C)[nH]c5c4)ccc2-3)[nH]1)C(C)C [PCM-0215396] |
| 75.5 | – | CCCCc1oc2ccccc2c1C(=O)c1cc(I)c(OCCN(CC)CC)c(I)c1 [PCM-0064561] |
| -6.2 | – | CCCOC(=O)c1ccc(O)cc1 [PCM-0216242] |
| 15.4 | – | COC(=O)CC[C@H](NC(=O)[C@H](CC(=O)OC)NC(=O)OCc1ccccc1)C(=O)N[C@H](C(=O)N[C@@H](CC(=O)OC)C(=O)CF)C(C)C [PCM-0215362] |
| -13.2 | – | Cc1nnc(SCC2=C(C(=O)O)N3C(=O)[C@@H](NC(=O)Cn4cc(Cl)c(=O)c(Cl)c4)[C@H]3SC2)s1 [PCM-0215135] |
| -0.8 | – | CCOC(=O)CCNc1cc(N2CCc3ccccc3CC2)nc(-c2ccccn2)n1 [PCM-0095581] |
| 21 | – | CC(C)NCC(O)COc1ccc(CCOCC2CC2)cc1 (centres unmarked) [PCM-0064542] |
| -6.9 | – | Cc1ccccc1C(C(=O)NC1CCCCC1)N(C(=O)Cn1ccnc1C)c1cccc(F)c1 (centres unmarked) [PCM-0215210] |
| 1.6 | – | CCCCC[C@H](O)CC(=O)CCc1ccc(O)c(OC)c1 [PCM-0214961] |
| -10 | – | CN(CCN1CCC(OC(=O)Nc2ccccc2-c2ccccc2)CC1)C(=O)c1ccc(CN2CCC(C(N)=O)CC2)cc1 [PCM-0216137] |
| -24.9 | – | Cn1c(=O)c2[nH]cnc2n(C)c1=O [PCM-0064445] |
| 2.3 | – | Cc1cn([C@H]2C=C[C@@H](CO)O2)c(=O)[nH]c1=O [PCM-0065071] |
| -14.8 | – | CC(C)OC(=O)OCOP(=O)(CO[C@H](C)Cn1cnc2c(N)ncnc21)OCOC(=O)OC(C)C [PCM-0214620] |
| 3.4 | – | CO[C@H]1C[C@@H]2CC[C@@H](C)[C@@](O)(O2)C(=O)C(=O)N2CCCC[C@H]2C(=O)O[C@H]([C@H](C)C[C@@H]2CC[C@H](n3cnnn3)[C@H](OC)C2)CC(=O)[C@H](C)/C=C(\C)[C@@H](O)[C@@H](OC)C(=O)[C@H](C)C[C@H](C)/C=C/C=C/C=C/1C [PCM-0215342] |
| -14 | – | C[C@@H](c1nc(-c2ccc(C#N)cc2)cs1)[C@](O)(Cn1cncn1)c1cc(F)ccc1F [PCM-0214918] |

Continued, compound first:

| SMILES | inhibition at 10 µM [1] [%] | inhibition at 10 µM (read-out: BTK inhibition (%)) [%] |
| --- | --- | --- |
| Cn1c(=O)cc(N2CCC[C@@H](N)C2)n(Cc2cc(F)ccc2C#N)c1=O [PCM-0095818] | 15.4 | – |
| O=C1C(=O)N(Cc2ccc(Cl)c(Cl)c2)c2ccccc21 [PCM-0095429] | 9.3 | – |
| Fc1ccc(Cn2c(Cl)nc3ccccc32)cc1 [PCM-0216108] | -52.5 | – |
| CCOc1cc(C(=O)N2CCC(N3CCN(C)CC3)CC2)ccc1Nc1ncc2c(n1)N(C1CCCC1)c1ccccc1C(=O)N2C [PCM-0213331] | 0 | – |
| CC1OC2OC3C(OCC(O)C3O)OC(=O)C34CCC(C)(C)CC3C3=CCC5C6(C)CC(O)C(OC7OC(CO)C(O)C(O)C7OC7OCC(OC(=O)CC(C)(O)CC(=O)OC1C(OC1OCC(O)C(O)C1O)C2O)C(O)C7O)C(C)(CO)C6CCC5(C)C3(C)CC4O (centres unmarked) [PCM-0216328] | -1.5 | – |
| Cc1[nH]c(=O)c(C#N)cc1-c1ccncc1 [PCM-0065386] | -9.3 | – |
| CCCC(=O)NCCc1csc(-c2ccc(Cl)cc2)n1 [PCM-0215869] | 2.3 | – |
| OC[C@H]1O[C@H](O[C@H]2[C@H](O)[C@@H](O)C(O)O[C@@H]2CO)[C@H](O)[C@@H](O)[C@@H]1O (some centres unmarked) [PCM-0215131] | 0 | – |
| COc1ccccc1N1CCN(CCN2C(=O)CC3(CCCC3)CC2=O)CC1 [PCM-0064586] | -3.1 | – |
| COC(=O)[C@H](c1ccccc1Cl)N1CCc2sccc2C1 [PCM-0090332] | 2.3 | – |
| O=C(O)/C=C(/CC(=O)O)C(=O)O [PCM-0215145] | -0.8 | – |
| OCCN(CCO)c1nc(N2CCCCC2)c2nc(N(CCO)CCO)nc(N3CCCCC3)c2n1 [PCM-0065264] | 10.9 | – |
| Cc1ccccc1N=Nc1ccc(NC(=O)c2ccnn2C)c(C)c1 [PCM-0215441] | 6.9 | – |
| O=C(O)c1cc(O)cc(Cl)c1 [PCM-0216556] | -10 | – |
| C[C@]1(COc2ccc(N3CCC(Oc4ccc(OC(F)(F)F)cc4)CC3)cc2)Cn2cc([N+](=O)[O-])nc2O1 [PCM-0215096] | -1.5 | – |
| C[Si](C)(C)N=C(O[Si](C)(C)C)C(F)(F)F [PCM-0216107] | -6.9 | – |
| COC1[C@@H](O)[C@H](O)C(O)[C@H](O)[C@H]1O (some centres unmarked) [PCM-0216283] | 11.6 | – |

| SMILES | inhibition at 10 µM [1] [%] | inhibition at 10 µM (read-out: BTK inhibition (%)) [%] |
| --- | --- | --- |
| CCCCCCCCCCCCCCCCO [PCM-0214755] | -3.9 | – |
| Cc1cc(C(C)(C)C)cc(C)c1CC1=NCCN1 [PCM-0064984] | -0.8 | – |
| NC(=S)c1ccncc1 [PCM-0214940] | 7.8 | – |
| Cc1csc(-c2nnc(Nc3ccc(Oc4ncccc4-c4ccnc(N)n4)cc3)c3ccccc23)c1 [PCM-0095438] | 97.9 | – |
| O=C(NCc1ccc(Oc2ccccc2)cc1)c1nc(-c2cc(Br)c(O)c(Br)c2)no1 [PCM-0215261] | 94.2 | – |
| O=C(O)COCCN1CCN([C@H](c2ccccc2)c2ccc(Cl)cc2)CC1 [PCM-0215119] | -6.2 | – |
| Clc1ccc(C(Cn2ccnc2)OCc2ccsc2Cl)c(Cl)c1 (centres unmarked) [PCM-0085844] | -41.2 | – |
| COc1cccc(/C=N/N(C(=O)C(F)(F)F)c2ccc(C)cc2C)c1 [PCM-0216073] | 13.9 | – |
| Cc1c(-c2ccc(O)cc2)n(Cc2ccc(OCCN3CCCCCC3)cc2)c2ccc(O)cc12 [PCM-0095308] | 84 | – |
| O=C(NNc1ccccc1)c1ccncc1 [PCM-0095808] | -11.6 | – |
| CN1CCN(c2cccc(Nc3nc4c(-c5ccc(S(C)(=O)=O)cc5)cccn4n3)c2)CC1 [PCM-0095404] | 41.4 | – |
| O=C1C([C@@H]2O[C@H](CO)[C@@H](O)[C@H](O)[C@H]2O)=C(O)/C(=C(O)/C=C/c2ccc(O)cc2)C(=O)C1(O)[C@@H]1O[C@H](CO)[C@@H](O)[C@H](O)[C@H]1O (some centres unmarked) [PCM-0216360] | – | 23.9 |
| Nc1nc(NC2CC2)cc(-c2cccc(Cl)c2Cl)n1 [PCM-0215420] | 28.6 | – |
| COC(=O)[C@@H]1CC2=CC(=O)CC[C@]2(C)[C@@]23O[C@@H]2C[C@@]2(C)[C@@H](CC[C@@]24CCC(=O)O4)[C@H]13 [PCM-0215188] | -18.7 | – |
| CC(C)OC(=O)[C@H](C)N[P@](=O)(OC[C@H]1O[C@@H](n2ccc(=O)[nH]c2=O)[C@](C)(F)[C@@H]1O)Oc1ccccc1 [PCM-0214785] | 13.2 | – |
| NC[C@H]1O[C@H](O[C@H]2[C@H](O[C@@H]3O[C@H](CO)[C@@H](O)[C@H]3O)[C@@H](O)[C@H](N)C[C@@H]2N)[C@H](N)[C@@H](O)[C@@H]1O [PCM-0215219] | 25.5 | – |
